Source: patent US4769389A, “Oxygenated-alkyl derivatives of glutamic and aspartic acids with antagonistic activity to bio-active polypeptides and a method for their preparation” (priority 1985, dated 1988)
In brackets after ≈: the same amount, converted by molar mass. Where two headings read alike, the source gives them in different places.

Columns and labels:
guinea-pig gallbladder = assay: Anti-CCK activity on guinea-pig gallbladders in vitro (contraction by CCK-8); settings: for IC50: Cavia porcellus, CCK-8 10 ng/ml, in vitro
Experimental: ANTI-CCK ACTIVITY ON GUINEA-PIG GALLBLADDERS IN VITRO A longitudinal strip of guinea-pig gallbladder is placed in a bath for isolated organs in Krebs at a temperature of 32° C. and oxygenated continuously with an oxygen-CO2 mixture (95-[…]). The isometric contractions were detected by means of a force transducer and recorded. […] The results obtained are shown in Table 3 which gives the compounds tested and the IC50 values found which were calculated by the method of regression in a test of at least three experiments for each compound studied.

guinea pig gall bladders = assay: Anti-CCK-8 activity on guinea-pig gallbladders in situ (in vivo); settings: Cavia porcellus, iv; CCK-8 10 ng/kg i.v.; compound i.v.; read-out: ID50, anti-CCK-8 activity in situ
Experimental: In order to confirm the evidence of the studies in vitro, several of the more interesting compounds were tested in vivo with the use of guinea-pig gallbladders in situ.
The method used was that described by Ljungberg (Svensk. Farm. Tidskr. 69, 351-354, 1964).
Guinea-pigs having a weight of about 400 g anaesthetised with urethane were used; the substances being tested were administered intravenously (i.v.) into the jugular vein.
The responses of the gallbladder to the substances being tested were detected by means of a force transducer and recorded by means of a microdynamometer. 10 ng/kg of CCK 8 were chosen as the optimum contracting dose. The antagonistic compounds tested were administered in increasing doses so as to enable the calculation of an ID50 value, that is the dose (in mg/kg i.v.) having a 50% inhibiting effect against contractions induced by 10 ng/kg i.v. of CCK-8.

in vivo = settings: mouse, iv
digestive tract = assay: Antispastic activity, vegetable carbon test (speed of transit through stomach and intestine) in mice; type: in vivo; settings: Mus musculus, ip, read-out: A[…] ED50 (dose which reduces the intestinal transit time of the carbon by 50%), intraperitoneally
Text: The anti-spastic activity which the present compounds exert on the whole of the digestive tract is also considerable. Measured in mice with the vegetable carbon test (speed of transit through the stomach and intestine) this activity is illustrated in the following table: […]

[1] = test system: pancreatitis in rats induced experimentally by taurocholate; assay: Pancreatitis induced by sodium taurocolate in rats; type: in vivo; settings: for ED50: Rattus norvegicus, ip, taurocholate, rats
Experimental: The products under examination were administered intraperitoneally (i.p.) 30 minutes before the operation and 3 hours after the operation. Six hours after the laparatomy the blood was removed from the retro-orbitory plexus after anaesthesia with ether, the animals were killed and the pancreas was removed and weighed. The activity of the serum amylase was determined by the method described above.

[2] = test system: pancreatitis in mice induced experimentally by cerulein; assay: Pancreatitis induced by cerulein in mice; type: in vivo; settings: for ED50: Mus musculus, ip, cerulein, mice
Experimental: Adult male mice received six injections of cerulein (Takus) (50 mcg/kg) each hour for six hours.
The compound was administered 30 minutes before each administration of cerulein. Nine hours after the beginning of the treatment, the blood was taken from the rectro-orbitory plexus after anaesthesia with ether, the animals were killed and the pancreas removed and weighed.

colon of rabbits = assay: Antispastic activity in the colon of rabbits stimulated with CCK-8; type: in vivo, rabbit; parameters: Antispastic activity in colon, EXPERIMENT 1 / Antispastic activity in colon, EXPERIMENT 2: unit not given here; settings: CCK 100 ng/kg
Experimental: The abdomen of anaesthetised rabbit is cut open to display the tranverse colon. A small balloon full of water is inserted at an established point and connected to a pressure transducer by means of a polyethylene cannula filled with H2 O.
The optimum sensitivity being fixed in relation to the physiological contractions, the products were administered through the femeral vein. Contractions were induced by the administration of 100 ng/kg of CCK.

CCCCCN(CCOCC)C(=O)C(CCC(=O)O)NC(=O)c1ccc(Cl)cc1 (stereo not shown) [Compound 12]
IC50 (guinea-pig gallbladder): 2.9 µg/mL (≈ 6.79 µM) | ED50 (guinea pig gall bladders): 4.44 mg/kg

CCCCCN(CCCOC)C(=O)C(CCC(=O)O)NC(=O)c1cccc(Cl)c1 (stereo not shown) [Compound 13]
IC50 (guinea-pig gallbladder): 8.9 µg/mL (≈ 20.8 µM) | ED50 (guinea pig gall bladders): 6.7 mg/kg

CCCCCN(CCCOC)C(=O)C(CCC(=O)O)NC(=O)c1ccc(F)c(F)c1 (stereo not shown) [Compound 14]
IC50 (guinea-pig gallbladder): 0.8 µg/mL (≈ 1.87 µM) | ED50 (guinea pig gall bladders): 1.1 mg/kg | LD50 (in vivo): 425 mg/kg | selectivity ratio (in vivo): 386

COCCCN(CCCC(C)C)C(=O)C(CCC(=O)O)NC(=O)c1ccc(Cl)c(Cl)c1 (stereo not shown) [Compound 15]
IC50 (guinea-pig gallbladder): 0.7 µg/mL (≈ 1.47 µM) | ED50 (guinea pig gall bladders): 0.84 mg/kg | LD50 (in vivo): 288 mg/kg | selectivity ratio (in vivo): 343 | ED50 (digestive tract): 44.2 mg/kg

CCCCN(CCCOC)C(=O)C(CCC(=O)O)NC(=O)c1ccc(Cl)c(Cl)c1 (stereo not shown) [Compound 16]
IC50 (guinea-pig gallbladder): 1.5 µg/mL (≈ 3.35 µM) | ED50 (guinea pig gall bladders): 2.08 mg/kg

CCCCCCN(CCCOC)C(=O)C(CCC(=O)O)NC(=O)c1ccc(Cl)c(Cl)c1 (stereo not shown) [Compound 17]
IC50 (guinea-pig gallbladder): 1.6 µg/mL (≈ 3.37 µM) | ED50 (guinea pig gall bladders): 3.25 mg/kg

COCCCN(CCCC(C)(C)C)C(=O)C(CCC(=O)O)NC(=O)c1ccc(Cl)c(Cl)c1 (stereo not shown) [Compound 18]
IC50 (guinea-pig gallbladder): 4.8 µg/mL (≈ 9.81 µM) | ED50 (guinea pig gall bladders): 6.79 mg/kg

COCCCN(CCC(C)C)C(=O)C(CCC(=O)O)NC(=O)c1ccc(Cl)c(Cl)c1 (stereo not shown) [Compound 19]
IC50 (guinea-pig gallbladder): 0.6 µg/mL (≈ 1.3 µM) | ED50 (guinea pig gall bladders): 0.74 mg/kg | LD50 (in vivo): 297 mg/kg | selectivity ratio (in vivo): 401 | ED50 (digestive tract): 18.5 mg/kg

CCCCCN(CCCOC)C(=O)C(CC(=O)O)NC(=O)c1ccc(Cl)c(Cl)c1 (stereo not shown) [Compound 20]
IC50 (guinea-pig gallbladder): 0.9 µg/mL (≈ 2.01 µM) | ED50 (guinea pig gall bladders): 0.84 mg/kg | LD50 (in vivo): 362 mg/kg | selectivity ratio (in vivo): 431 | ED50 (digestive tract): 27.9 mg/kg

CCCCCN(CCCOC)C(=O)C(CC(=O)O)NC(=O)c1ccc(C)c(C)c1 (stereo not shown) [Compound 21]
IC50 (guinea-pig gallbladder): 4.7 µg/mL (≈ 11.6 µM) | ED50 (guinea pig gall bladders): 3.69 mg/kg

CCCN(CCC)C(=O)C(CCC(=O)O)NC(=O)c1ccccc1 (stereo not shown) [Proglumide, reference compound]
IC50 (guinea-pig gallbladder): 340 µg/mL (≈ 1020 µM) | activity less than that of the most active compound in the invention (guinea-pig gallbladder; in vitro gallbladder): about 3000 times less | AMYLASE IN THE SERUM ([1]; 200 mg/kg i.p. + taurocholate): 14.5 U/ml | INHIBITION OF AMYLASE INCREASE ([1]; 200 mg/kg i.p. + taurocholate): 45.5% | INHIBITION OF WEIGHT INCREASE ([1]; 200 mg/kg i.p. + taurocholate): 21.4% | RATIO WEIGHT OF PANCREAS / ANIMAL WEIGHT ([1]; 200 mg/kg i.p. + taurocholate): 0.49% | AMYLASE IN THE SERUM ([1]; 400 mg/kg i.p. + taurocholate): 9.1 U/ml | INHIBITION OF AMYLASE INCREASE ([1]; 400 mg/kg i.p. + taurocholate): 89.4% | INHIBITION OF WEIGHT INCREASE ([1]; 400 mg/kg i.p. + taurocholate): 42.8% | RATIO WEIGHT OF PANCREAS / ANIMAL WEIGHT ([1]; 400 mg/kg i.p. + taurocholate): 0.46% | ED50 ([1]; read-out: ED50, inhibition of amylase increase): 222 mg/kg | ED50 ([1]; read-out: ED50, inhibition of weight increase): 467 mg/kg | ED50 (guinea pig gall bladders): 70.5 mg/kg | AMYLASE IN THE SERUM ([2]; 200 mg/kg ip + cerulein): 48.2 U/ml | INHIBITION OF WEIGHT INCREASE ([2]; 200 mg/kg ip + cerulein): 53.4% | INHIBITION OF WEIGHT INCREASE (pancreas) ([2]; 200 mg/kg ip + cerulein): 38.1% | RATIO WEIGHT OF PANCREAS / ANIMAL WEIGHT ([2]; 200 mg/kg ip + cerulein): 0.47% | AMYLASE IN THE SERUM ([2]; 400 mg/kg ip + cerulein): 26.2 U/ml | INHIBITION OF WEIGHT INCREASE ([2]; 400 mg/kg ip + cerulein): 80.9% | INHIBITION OF WEIGHT INCREASE (pancreas) ([2]; 400 mg/kg ip + cerulein): 85.7% | RATIO WEIGHT OF PANCREAS / ANIMAL WEIGHT ([2]; 400 mg/kg ip + cerulein): 0.37% | ED50 ([2]; read-out: ED50 (inhibition of weight increase)): 226 mg/kg | ED50 ([2]; read-out: ED50, inhibition of weight increase of the pancreas): 241 mg/kg | activity of proglumide in cerulein pancreatitis ([2]; in words): also active but at considerably higher doses | LD50 (in vivo): 2400 mg/kg | selectivity ratio (in vivo): 34 | Antispastic activity in colon, EXPERIMENT 1 (colon of rabbits; 25 mg/kg i.v.): -33.7 | Antispastic activity in colon, EXPERIMENT 2 (colon of rabbits; 25 mg/kg i.v.): 0 | Antispastic activity in colon, EXPERIMENT 1 (colon of rabbits; 50 mg/kg i.v.): -38.1 | Antispastic activity in colon, EXPERIMENT 2 (colon of rabbits; 50 mg/kg i.v.): -16.1 | Antispastic activity in colon, EXPERIMENT 1 (colon of rabbits; 100 mg/kg i.v.): -64.4 | Antispastic activity in colon, EXPERIMENT 2 (colon of rabbits; 100 mg/kg i.v.): -43.1 | ED50 (colon of rabbits; Oryctolagus cuniculus, iv): 92.6 mg/kg
